What was measured:
Experiment in all cases: relative viability (nuclei count vs DMSO), 5 days (fraction); higher = more cells survive
[1] = compound: Cn1cncc1[C@@](N)(c1ccc(Cl)cc1)c1ccc2c(c1)c(-c1cccc(Cl)c1)cc(=O)n2C [Tipifarnib] + NC(=O)Nc1cc(-c2cccc(F)c2)sc1C(=O)N[C@H]1CCCNC1 [AZD7762] (partner 0.2 µM)
Procedure, shortened: (§1)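 Values are medians from duplicate plates. Each reflects relative viability, defined as the nuclei count of treated wells over that of vehicle wells. Lung cancer cell lines in 1536-well plates were pin-tool dosed one day after seeding with one drug alone or with a fixed anchor-drug dose plus five library-drug doses (not always all listed) in √10 steps, then fixed, stained and imaged at 4× after 5 days.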

[2] = compound: Cn1cncc1[C@@](N)(c1ccc(Cl)cc1)c1ccc2c(c1)c(-c1cccc(Cl)c1)cc(=O)n2C [Tipifarnib] + COc1cc2c(Oc3ccc(NC(=O)C4(C(=O)Nc5ccc(F)cc5)CC4)cc3F)ccnc2cc1OCCCN1CCOCC1 [Foretinib] (partner 0.25 µM)
Procedure, shortened: as §1

[3] = compound: Cn1cncc1[C@@](N)(c1ccc(Cl)cc1)c1ccc2c(c1)c(-c1cccc(Cl)c1)cc(=O)n2C [Tipifarnib] + COc1cccc2cc(-c3nc([C@H]4CC[C@H](C(=O)O)CC4)n4ncnc(N)c34)[nH]c12 [OSI-027] (partner 0.5 µM)
Procedure, shortened: as §1

[4] = compound: Cn1cncc1[C@@](N)(c1ccc(Cl)cc1)c1ccc2c(c1)c(-c1cccc(Cl)c1)cc(=O)n2C [Tipifarnib] + Nc1nc2[nH]cc(CCc3ccc(C(=O)N[C@@H](CCC(=O)O)C(=O)O)cc3)c2c(=O)[nH]1 [Pemetrexed] (partner 0.2 µM)
Procedure, shortened: as §1

## HARA
[1]; first compound 0.01 µM
  relative viability: 0.239
[1]; first compound 0.03162 µM
  relative viability: 0.426
[1]; first compound 0.1 µM
  relative viability: 0.283
[1]; first compound 0.3162 µM
  relative viability: 0.297
[1]; first compound 1 µM
  relative viability: 0.166
[2]; first compound 0.01 µM
  relative viability: 1.1
[2]; first compound 0.03162 µM
  relative viability: 0.828
[2]; first compound 0.1 µM
  relative viability: 0.96
[2]; first compound 0.3162 µM
  relative viability: 0.951
[2]; first compound 1 µM
  relative viability: 0.269
[3]; first compound 0.01 µM
  relative viability: 0.618
[3]; first compound 0.03162 µM
  relative viability: 0.408
[3]; first compound 0.1 µM
  relative viability: 0.298
[3]; first compound 0.3162 µM
  relative viability: 0.137
[3]; first compound 1 µM
  relative viability: 0.147
[4]; first compound 0.01 µM
  relative viability: 0.23
[4]; first compound 0.03162 µM
  relative viability: 0.32
[4]; first compound 0.1 µM
  relative viability: 0.293
[4]; first compound 0.3162 µM
  relative viability: 0.297
[4]; first compound 1 µM
  relative viability: 0.249

## NCI-H2126
[1]; first compound 0.01 µM
  relative viability: 1.01
[1]; first compound 0.03162 µM
  relative viability: 1
[1]; first compound 0.1 µM
  relative viability: 0.991
[1]; first compound 0.3162 µM
  relative viability: 0.962
[1]; first compound 1 µM
  relative viability: 0.716
[2]; first compound 0.01 µM
  relative viability: 1.06
[2]; first compound 0.03162 µM
  relative viability: 1.55
[2]; first compound 0.1 µM
  relative viability: 1.1
[2]; first compound 0.3162 µM
  relative viability: 1.12
[2]; first compound 1 µM
  relative viability: 1.12
[3]; first compound 0.01 µM
  relative viability: 0.719
[3]; first compound 0.03162 µM
  relative viability: 0.719
[3]; first compound 0.1 µM
  relative viability: 0.711
[3]; first compound 0.3162 µM
  relative viability: 0.614
[3]; first compound 1 µM
  relative viability: 0.435
[4]; first compound 0.01 µM
  relative viability: 0.666
[4]; first compound 0.03162 µM
  relative viability: 0.691
[4]; first compound 0.1 µM
  relative viability: 0.676
[4]; first compound 0.3162 µM
  relative viability: 0.642
[4]; first compound 1 µM
  relative viability: 0.503

## LXF-289
[1]; first compound 0.01 µM
  relative viability: 1.08
[1]; first compound 0.03162 µM
  relative viability: 1.12
[1]; first compound 0.1 µM
  relative viability: 1.08
[1]; first compound 0.3162 µM
  relative viability: 0.941
[1]; first compound 1 µM
  relative viability: 0.347
[2]; first compound 0.01 µM
  relative viability: 0.998
[2]; first compound 0.03162 µM
  relative viability: 0.966
[2]; first compound 0.1 µM
  relative viability: 0.858
[2]; first compound 0.3162 µM
  relative viability: 0.825
[2]; first compound 1 µM
  relative viability: 0.824
[3]; first compound 0.01 µM
  relative viability: 0.951
[3]; first compound 0.03162 µM
  relative viability: 0.699
[3]; first compound 0.1 µM
  relative viability: 0.709
[3]; first compound 0.3162 µM
  relative viability: 0.6
[3]; first compound 1 µM
  relative viability: 0.293
[4]; first compound 0.01 µM
  relative viability: 0.849
[4]; first compound 0.03162 µM
  relative viability: 0.884
[4]; first compound 0.1 µM
  relative viability: 0.835
[4]; first compound 0.3162 µM
  relative viability: 0.759
[4]; first compound 1 µM
  relative viability: 0.526

## NCI-H460
[1]; first compound 0.01 µM
  relative viability: 0.575
[1]; first compound 0.03162 µM
  relative viability: 0.618
[1]; first compound 0.1 µM
  relative viability: 0.282
[1]; first compound 0.3162 µM
  relative viability: 0.237
[1]; first compound 1 µM
  relative viability: 0.118
[2]; first compound 0.01 µM
  relative viability: 1
[2]; first compound 0.03162 µM
  relative viability: 0.872
[2]; first compound 0.1 µM
  relative viability: 0.624
[2]; first compound 0.3162 µM
  relative viability: 0.581
[2]; first compound 1 µM
  relative viability: 0.207
[3]; first compound 0.01 µM
  relative viability: 0.669
[3]; first compound 0.03162 µM
  relative viability: 0.626
[3]; first compound 0.1 µM
  relative viability: 0.257
[3]; first compound 0.3162 µM
  relative viability: 0.209
[3]; first compound 1 µM
  relative viability: 0.0157
[4]; first compound 0.01 µM
  relative viability: 0.0634
[4]; first compound 0.03162 µM
  relative viability: 0.0696
[4]; first compound 0.1 µM
  relative viability: 0.0701
[4]; first compound 0.3162 µM
  relative viability: 0.06
[4]; first compound 1 µM
  relative viability: 0.0551

## NCI-H1395
[1]; first compound 0.01 µM
  relative viability: 0.363
[1]; first compound 0.03162 µM
  relative viability: 0.367
[1]; first compound 0.1 µM
  relative viability: 0.398
[1]; first compound 0.3162 µM
  relative viability: 0.375
[1]; first compound 1 µM
  relative viability: 0.329
[2]; first compound 0.01 µM
  relative viability: 0.986
[2]; first compound 0.03162 µM
  relative viability: 0.956
[2]; first compound 0.1 µM
  relative viability: 0.814
[2]; first compound 0.3162 µM
  relative viability: 0.705
[2]; first compound 1 µM
  relative viability: 0.77
[3]; first compound 0.01 µM
  relative viability: 0.622
[3]; first compound 0.03162 µM
  relative viability: 0.545
[3]; first compound 0.1 µM
  relative viability: 0.494
[3]; first compound 0.3162 µM
  relative viability: 0.517
[3]; first compound 1 µM
  relative viability: 0.413
[4]; first compound 0.01 µM
  relative viability: 0.826
[4]; first compound 0.03162 µM
  relative viability: 0.76
[4]; first compound 0.1 µM
  relative viability: 0.746
[4]; first compound 0.3162 µM
  relative viability: 0.651
[4]; first compound 1 µM
  relative viability: 0.508

## NCI-H2170
[1]; first compound 0.01 µM
  relative viability: 0.98
[1]; first compound 0.03162 µM
  relative viability: 0.885
[1]; first compound 0.1 µM
  relative viability: 0.701
[1]; first compound 0.3162 µM
  relative viability: 0.644
[1]; first compound 1 µM
  relative viability: 0.506
[2]; first compound 0.01 µM
  relative viability: 1.03
[2]; first compound 0.03162 µM
  relative viability: 1.06
[2]; first compound 0.1 µM
  relative viability: 1.01
[2]; first compound 0.3162 µM
  relative viability: 0.99
[2]; first compound 1 µM
  relative viability: 0.896
[3]; first compound 0.01 µM
  relative viability: 0.668
[3]; first compound 0.03162 µM
  relative viability: 0.678
[3]; first compound 0.1 µM
  relative viability: 0.583
[3]; first compound 0.3162 µM
  relative viability: 0.55
[3]; first compound 1 µM
  relative viability: 0.353
[4]; first compound 0.01 µM
  relative viability: 0.257
[4]; first compound 0.03162 µM
  relative viability: 0.291
[4]; first compound 0.1 µM
  relative viability: 0.269
[4]; first compound 0.3162 µM
  relative viability: 0.243
[4]; first compound 1 µM
  relative viability: 0.242

From the supplement of paper PMC10307832
